Results on five compounds are retold here after patent publication US20050221456A1, “Use of indanoyl amide to stimulate secondary metabolism in Taxus sp” (Phyton Biotech, Inc., priority 2004, published 2005).

Experiment [1] has as its system Taxus chinensis cells. Nature of the experiment: Effect of 1-OII on accumulation of taxanes by Taxus cell suspension culture (14 days). The note with it: for Baccatin III / Paclitaxel / Total taxanes: 14 days in production medium with NAA, MDCA, GLN, silver thiosulfate. Type of experiment: cell-based. As to the method:
(§1) This experiment was carried out according to the following parameters. Taxus chinensis cells were cultivated as callus and then as suspended cells on growth medium (Medium A, Table B) according to the methods described above. After seven days of cultivation in this medium, the suspended cells were substantially separated from this medium and placed at ca. 20% (w/v) fresh cells into a basal production medium (Medium B, Table B) with an initial pH of 5.8. In addition to the ingredients listed in Table B, the medium also contained 20 micromol/l NAA, 20 micromol/l MDCA, 5 mmol/l GLN, and 50 micromol/l silver as a thiosulfate complex. The gas phase was controlled to oxygen at 90-97% of the value in air and 2.5-6% CO2; the temperature was held at 25±2 degrees Celsius. The cells were cultivated in the dark and were agitated at 150-200 rpm for the duration of the experiment. After 14 days of cultivation in production medium, the culture was harvested for taxanes.

Experiment [2] has as its system Taxus chinensis cells. Description: Effect of 6-BII on taxane production in suspension culture (14 days). In kind it is cell-based. The note with it: for Baccatin III / Paclitaxel / Total taxanes: 14 days in production medium with NAA, MDCA, GLN, silver thiosulfate. As to the method:
as §1, with “approximately” for “ca.”, “comprised” for “also contained”, “levels” for “value”

The subject of experiment [3] is touch-sensitive tendrils of Bryonia diocia. The note with it: quoted from Schuler et al. WO 02/55480; cited from earlier work.
The subject of experiment [4] is tendril coiling. The note with it: quoted from Haider et al.; cited from earlier work.
Experiment [5] has as its system paclitaxel and taxanes biosynthesis. Particulars: teaching of EP 727492 (Yukimune et al.); cited from earlier work.
Experiment [6] deals with Taxus chinensis cells. Nature of the experiment: Fed batch addition of 6-EII, taxane production in Taxus chinensis suspension culture (12 days). Type of experiment: cell-based. The note with it: cumulative 12-day fed batch dose 30 micromol/l. From the text: The medium also contains an indanoyl amide as described in the present application, optionally in combination with one or more jasmonic acid-related substance, and these materials may be added at the beginning of the culture, after the exponential growth phase, or intermittantly throughout the culture period. The other ingredients of the medium may be added all at one time or at different times during the cultivation and may be fed continuously or intermittently. The ingredients may be added either before or after the inclusion of plant cells in the culture broth. Further, nutrients or other ingredients may be additionally added during cultivation, if deemed useful. Optionally, the medium may be changed after a suitable period of cultivation whereby the cells are freshly exposed to a medium containing similar ingredients as described above. Such changes could involve changes to the amounts of sugars such as glucose, fructose, sucrose, maltose, etc., nitrogen sources such as nitrate, ammonium, or amino acids or casamino acids, etc. After a period of cultivation, the culture is harvested and the levels of taxanes are quantified using HPLC and specific taxanes are identified using LC/MS/MS. Taxanes can be recovered from these cultures by appropriate extraction and purification procedures. For Experiments 2-8, Taxus cells were cultivated as callus cultures on solid medium and then further cultivated as suspensions of cell aggregates in liquid medium. Although taxanes can be produced by cultivation on solid medium, the use of liquid medium is preferred. The temperature of cultivation was controlled between 20 and 30 degrees Celsius. This experiment was carried out according to the following parameters. […] Taxus chinensis cells were cultivated as callus and then as suspended cells in growth medium (Medium A shown in Table B) containing 1% maltose and B5 salts according to the methods described above. After seven days of cultivation in this medium, the suspended cells were substantially separated from this medium and placed at about 20% (w/v) fresh cells into a production medium consisting of about 20% (v/v) spent growth medium and 80% (v/v) basal production medium (Medium B shown in Table B, but 1.25-fold concentrated) with an initial pH of 5.8 and containing 20 micromol/l MDCA and 50 micromol/l SLTS (Silver Thiosulfate). […] The gas phase was controlled to 25% oxygen and 4.5% CO2 (balance nitrogen) and the temperature was held at 25±2 degrees Celsius. The cells were cultivated in the dark and were agitated at 100-150 rpm for the duration of the experiment. After 12 days of cultivation in production medium, the culture was harvested for taxanes.

The subject of experiment [7] is Eschscholzia californica Cell Cultures. Particulars: compared with the octadecanoids or coronatine; quoted from Haider et al.; cited from earlier work.
[8] abbreviates: harvest after 12 days in production medium.

Regarding `CC[C@H](C)[C@H](NC(=O)c1cccc2c1CCC2=O)C(=O)OC` [1-OII, 1-oxo-indane-carboxy-(L)-isoleucine-methyl ester amide], in experiment [1] (Taxus suspension culture), the “induction of taxanes production” value was “effective inducer of taxanes production”. Besides, the “Baccatin III” value in experiment [1] (dose 5 micromol/l) is 50 mg/L; in experiment [1] (dose 20 micromol/l) it was 72 mg/L; in experiment [1] (dose 50 micromol/l), 112 mg/L; in experiment [1] (dose 100 micromol/l), 242 mg/L; in experiment [1] (dose 200 micromol/l), 375 mg/L; in experiment [1] (dose 500 micromol/l) it was 45 mg/L. In addition, the Paclitaxel in experiment [1] (dose 5 micromol/l) turned out to be 192 mg/L; in experiment [1] (dose 20 micromol/l) it was 248 mg/L; in experiment [1] (dose 50 micromol/l) it was 349 mg/L; in experiment [1] (dose 100 micromol/l), 409 mg/L; in experiment [1] (dose 200 micromol/l), 407 mg/L; in experiment [1] (dose 500 micromol/l) it was 67 mg/L. The Total taxanes in experiment [1] (dose 5 micromol/l) turned out to be 300 mg/L; in experiment [1] (dose 20 micromol/l), 400 mg/L; in experiment [1] (dose 50 micromol/l), 580 mg/L; in experiment [1] (dose 100 micromol/l), 822 mg/L; in experiment [1] (dose 200 micromol/l), 1055 mg/L; in experiment [1] (dose 500 micromol/l) it was 368 mg/L.

With 6-Bromoindanoyl isoleucine [6-BII], in experiment [2] (T. chinensis cell cultures), the “induction of taxanes production” value is given as “effective inducer of taxanes production”. The “Baccatin III” value in experiment [2] (dose 5 micromol/l) is 92 mg/L; in experiment [2] (dose 20 micromol/l), 114 mg/L; in experiment [2] (dose 50 micromol/l) it was 174 mg/L; in experiment [2] (dose 100 micromol/l), 313 mg/L; in experiment [2] (dose 200 micromol/l) it was 307 mg/L; in experiment [2] (dose 500 micromol/l) it was 1 mg/L. Also, the Paclitaxel was 235 mg/L in experiment [2] (dose 5 micromol/l); 230 mg/L in experiment [2] (dose 20 micromol/l); 254 mg/L in experiment [2] (dose 50 micromol/l); 360 mg/L in experiment [2] (dose 100 micromol/l); 375 mg/L in experiment [2] (dose 200 micromol/l); 0 mg/L in experiment [2] (dose 500 micromol/l). Moreover, the Total taxanes was 423 mg/L in experiment [2] (dose 5 micromol/l); 441 mg/L in experiment [2] (dose 20 micromol/l); 580 mg/L in experiment [2] (dose 50 micromol/l); 962 mg/L in experiment [2] (dose 100 micromol/l); 1060 mg/L in experiment [2] (dose 200 micromol/l); 105 mg/L in experiment [2] (dose 500 micromol/l).

With `CCc1cc2c(c(C(=O)N[C@H](C(=O)OC)[C@@H](C)CC)c1)CCC2=O` [6-ethyl-1-oxo-indanoyl isoleucine methyl ester], in experiment [3], the “elicitation of the coiling reaction of tendrils” value was “potent elicitor”.

In the case of `CCC1CC1(NC(=O)C1=C[C@H](CC)C[C@@H]2C(=O)CC[C@H]12)C(=O)O` (stereo partly drawn) [Coronatine], in experiment [4], the “induction of tendril coiling” value was “strong inducers of tendril coiling”. Also, the “induction of paclitaxel and taxanes biosynthesis” value in experiment [5] is “shown to induce paclitaxel and taxanes biosynthesis”.

Consider `CC/C=C\CC1C(=O)CCC1CC(=O)OC` (stereo not drawn) [MJS, methyl jasmonate, reference compound], for which, in experiment [2] (dose 45 micromol/l), the “Baccatin III” value came to 154 mg/L, the Paclitaxel is 574 mg/L and the Total taxanes was 912 mg/L. In addition, in experiment [6] (setting [8]), the “Baccatin III” value is reported as 273 mg/L and the Paclitaxel is on record as 490 mg/L. In addition, in experiment [6] (total taxanes, harvest after 12 days), the Total was 1410 mg/L. Moreover, in experiment [1] (dose 45 micromol/l), the “Baccatin III” value came to 226 mg/L, the Paclitaxel came out at 432 mg/L and the Total taxanes is 854 mg/L. Also, the “activation of benzo[c]phenanthridine alkaloid accumulation” value in experiment [7] is given as “much more effective”.
